Like-named read-outs stand apart in the source and are kept apart here.
Experiments:
IRAK4 = biological target: T1, IRAK4 (Homo sapiens, UniProt Q9NWZ3); experiment: IRAK-4 activity inhibition assay (Caliper); format: biochemical; conditions: 37 μM ATP, 3.5 nM IRAK4
T1 sequence (Q9NWZ3 1-460): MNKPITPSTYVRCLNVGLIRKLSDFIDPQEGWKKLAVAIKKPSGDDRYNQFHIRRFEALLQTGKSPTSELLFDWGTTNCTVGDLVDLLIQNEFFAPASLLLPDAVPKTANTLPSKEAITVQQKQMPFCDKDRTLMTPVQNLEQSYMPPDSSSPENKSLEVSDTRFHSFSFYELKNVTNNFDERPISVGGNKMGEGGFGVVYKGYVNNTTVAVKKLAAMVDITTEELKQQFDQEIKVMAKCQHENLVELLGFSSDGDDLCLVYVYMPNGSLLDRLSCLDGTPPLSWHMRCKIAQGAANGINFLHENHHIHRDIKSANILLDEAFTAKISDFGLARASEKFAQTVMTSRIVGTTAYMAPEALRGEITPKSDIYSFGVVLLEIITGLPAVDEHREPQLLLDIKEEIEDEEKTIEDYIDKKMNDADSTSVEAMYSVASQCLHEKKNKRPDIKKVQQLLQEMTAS

THP-1 cells = experiment: LPS induced cytokine (TNFα and IL8) production assay in THP-1 cells; format: cell-based; conditions: Homo sapiens, 300 ng/mL LPS
How it was run: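 THP-1 cells (100,000/well) pre-incubated 1 hour with compound in 0.3% DMSO, then stimulated with 300 ng/mL LPS. TNFα and IL8 in supernatant measured by HTRF at 5 hours; IL8 and viability also at 16 hours.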

Whole Blood = experiment: In vitro LPS/R848-induced cytokine production assay in whole blood; format: cell-based, human
Procedure: (§1) In Vitro LPS/R848/CpG-Induced Cytokine Production Assays in hPBMC or Whole Blood
(§2) Compounds of the present invention were also studied in in vitro LPS/R848/CpG-induced cytokine production assays. Exemplary protocols follow.
(§3) […] Cells were seeded in a 96-well plate with 130 ul/well of the cell suspension according to the plate map. 9 ul of 30 mM compound solution was added into the wells in the assigned rows, then serial solutions with 4× dilutions were made. That is, add 9 uL of 100% DMSO into each of the rest wells and take 3 uL of compound solution from the one-step higher concentration solution and mix well with the DMSO. For the second compound master plate, 196 uL of the growth medium (no serum media) were added into each of the wells and 4 uL of the compound solution from the first compound master plate was added and mixed with the media. Cells were treated for 0.5 h by adding 20 uL of the compound and the control solutions prepared in the second master plate to each well according to the plate map. […] Plates were sealed with sealing films and the plates were centrifuged at 3000 rpm at 4 degrees C. for 5 min. The supernatants were transferred, and 100 ul of working Capture antibody solution was added to each well. The plates were sealed and incubated overnight at RT. IL-6, IFN-α or TNF-α detection antibody labeled with biotin: Added 100 uL of the Detection Antibody solution to each well. Covered the plate and incubated for 2 h at RT. Added 100 uL of Streptavidin-HRP solution to each well. Covered the plate and incubate for 20 min at RT in dark. Added 100 uL of Substrate Solution to each well. Incubated for 20 min at RT in dark. Added 50 uL of Stop Solution to each well. Gently tapped the plate to ensure thorough mixing. Determined the optical density of each well immediately, using a microplate reader set to 450 nm and also read at 540 nm or 570 nm for correction if wavelength correction is not available.

ABC DLBCL Cells = experiment: sensitization of ABC DLBCL cells to IRAK inhibitors by BTK knockdown; format: cell-based; conditions: BTK knockdown (FIG. 9)
Description: FIG. 8 depicts the sensitization of ABC DLBCL Cells to IRAK Inhibitors by BTK knockdown.

GCB DLBCL Cells = experiment: sensitization of GCB DLBCL cells by BTK knockdown; format: cell-based; conditions: BTK knockdown (FIG. 10)
hPBMC = experiment: In vitro LPS/R848/CpG/IL-1β-induced cytokine production assay in hPBMC; format: cell-based; conditions: Homo sapiens
Procedure: as §1, §2, §3

[1] = test system: collagen-induced arthritis; experiment: In vivo murine collagen-induced arthritis model; conditions: DBA mice, intraperitoneally 30 mg/kg twice a day, vs vehicle
Procedure: In Vivo Murine Collagen-Induced Arthritis Model Compounds of the present invention were also evaluated in mice in an in vivo efficacy model for inhibiting IRAK4-mediated arthritis. An exemplary protocol for this assay follows. Male DBA mice were immunized with collagen on day 0 and day 21 and randomly enrolled into groups upon onset of disease. […] Eight mice were enrolled per group with the exception of the naïve control group, which contained four mice. Day 1 was designated as the first treatment day, and mice were evaluated daily for clinical scores until day 11. The mice were weighed on alternating days.

OCI-Ly10 cells = experiment: In vivo murine xenograft tumor model of human ABC DLBCL lymphoma; conditions: NOD/SCID mice
Procedure: In Vivo Murine Tumor Model of Human ABC DLBCL Lymphoma
Compounds of the present invention were also evaluated in a xenograft tumor model of human ABC DLBCL lymphoma first described and disclosed in Staudt et al. (2012). The tumor was established by subcutaneous injection of OCI-Ly10 cells into immunodeficient (NOD/SCID) mice. […] Tumor growth was monitored by measuring tumor size in two orthogonal directions. The tumor volume was calculated by using the formula (1/2)(long dimension)×(short dimension)^2.

ABC DLBCL cell lines = experiment: Cell viability assay, combination with ibrutinib; format: cell-based
Procedure: Compounds of the present invention were also evaluated in a cell viability assay.

[2] = Homo sapiens, LPS 0.1 ug/mL, read-out: TNF-α production IC50
[3] = Homo sapiens, R848 1 uM, read-out: IFN-α production IC50
[4] = R848 1 uM, read-out: TNF-α production IC50
[5] = Homo sapiens, LPS 0.1 ug/mL, read-out: IL-6 production IC50
[6] = LPS 0.01 ug/mL, read-out: IL-6 production IC50
[7] = LPS 0.01 ug/mL, read-out: TNF-α production IC50

Compound	IC50 (IRAK4) [nM]	IC50 (THP-1 cells; read-out: IL8 production IC50) [nM]	IC50 (THP-1 cells; read-out: TNFα production IC50) [nM]	IC50 (Whole Blood; [2]) [nM]	IC50 (Whole Blood; [3]) [nM]	IC50 (Whole Blood; [4]) [nM]	sensitization of ABC DLBCL Cells to compound by BTK knockdown (ABC DLBCL Cells)	sensitization of GCB DLBCL Cells to compound by BTK Knockdown (GCB DLBCL Cells)	IC50 (Whole Blood; [5]) [nM]	IC50 (hPBMC; CpG 0.1 uM, read-out: IFN-α production IC50) [nM]	IC50 (hPBMC; CpG 0.5 uM, read-out: TNF-α production IC50) [nM]	IC50 (hPBMC; IL-1β 1 ng/mL, read-out: IL-6 production IC50) [nM]	IC50 (hPBMC; [6]) [nM]	IC50 (hPBMC; [7]) [nM]	IC50 (hPBMC; [4]) [nM]	Clinical scores, collagen-induced arthritis [1]	ABC lymphoma growth (tumor volume) (OCI-Ly10 cells)	Tolerability in the animals (OCI-Ly10 cells)	Killing of ABC DLBCL cells in combination with ibrutinib (ABC DLBCL cell lines)
CN(CC(=O)N1CCCC1)[C@H]1CC[C@H](Oc2ncnc3sc4c(c23)[C@@H](CC(N)=O)CC4)CC1 [Compound I-73, 2-[(3R)-12-[(4-[methyl[2-oxo-2-(pyrrolidin-1-yl)ethyl]amino]cyclohexyl)oxy]-7-thia-9,11-diazatricyclo[6.4.0.0[2,6]]dodeca-1(8),2(6),9,11-tetraen-3-yl]acetamide]	< 5000	1000 to 5000	1000 to 5000	≥ 1000	–	–	–	–	–	–	–	–	–	–	–	–	–	–	–
NC(=O)[C@H]1CCc2sc3ncnc(O[C@H]4CC[C@H](N5CCOCC5)CC4)c3c2C1 [Compound I-220, (12S)-3-[[4-(morpholin-4-yl)cyclohexyl]oxy]-8-thia-4,6-diazatricyclo[7.4.0.0[2,7]]trideca-1(9),2(7),3,5-tetraene-12-carboxamide]	< 5000	≤ 500	≤ 500	≥ 1000	≥ 1000	≥ 1000	–	–	–	–	–	–	–	–	–	–	–	–	–
NC(=O)[C@@H](O)C[C@H]1CCc2sc3ncnc(O[C@H]4CC[C@H](N5CCOCC5)CC4)c3c21 [Compound I-92, (S)-2-hydroxy-3-((R)-4-(((1r,4R)-4-morpholinocyclohexyl)oxy)-6,7-dihydro-5H-cyclopenta[4,5]thieno[2,3-d]pyrimidin-5-yl)propanamide]	–	≤ 500	≤ 500	500 to 1000	500 to 1000	500 to 1000	sensitization	lack of sensitization	≤ 250	250 to 500	≤ 250	≤ 250	≤ 250	≤ 250	≤ 250	efficacious compared to the vehicle	reduces ABC lymphoma growth	well tolerated	Synergistic killing
CCN[C@H]1CC[C@H](Oc2ncnc3sc4c(c23)[C@@H](CC(N)=O)CC4)CC1 [Compound I-85, 2-((R)-4-(((1r,4R)-4-(ethylamino)cyclohexyl)oxy)-6,7-dihydro-5H-cyclopenta[4,5]thieno[2,3-d]pyrimidin-5-yl)acetamide]	< 5000	500 to 1000	500 to 1000	≥ 1000	–	–	–	–	–	–	–	–	–	–	–	–	–	–	–

Second part, led by results:

IC50 (IRAK4) [nM]	IC50 (THP-1 cells; read-out: IL8 production IC50) [nM]	IC50 (THP-1 cells; read-out: TNFα production IC50) [nM]	IC50 (Whole Blood; [2]) [nM]	IC50 (Whole Blood; [3]) [nM]	IC50 (Whole Blood; [4]) [nM]	Compound	sensitization of ABC DLBCL Cells to compound by BTK knockdown (ABC DLBCL Cells)	sensitization of GCB DLBCL Cells to compound by BTK Knockdown (GCB DLBCL Cells)	IC50 (Whole Blood; [5]) [nM]	IC50 (hPBMC; CpG 0.1 uM, read-out: IFN-α production IC50) [nM]	IC50 (hPBMC; CpG 0.5 uM, read-out: TNF-α production IC50) [nM]	IC50 (hPBMC; IL-1β 1 ng/mL, read-out: IL-6 production IC50) [nM]	IC50 (hPBMC; [6]) [nM]	IC50 (hPBMC; [7]) [nM]	IC50 (hPBMC; [4]) [nM]	Clinical scores, collagen-induced arthritis [1]	ABC lymphoma growth (tumor volume) (OCI-Ly10 cells)	Tolerability in the animals (OCI-Ly10 cells)	Killing of ABC DLBCL cells in combination with ibrutinib (ABC DLBCL cell lines)
< 5000	≤ 500	500 to 1000	≥ 1000	–	–	NC(=O)C[C@H]1CCc2sc3ncnc(O[C@H]4CC[C@H](N5CCCC5)CC4)c3c21 [Compound I-105, 2-[(3R)-12-[[4-(pyrrolidin-1-yl)cyclohexyl]oxy]-7-thia-9, 11-diazatricyclo[6.4.0.0[2,6]]dodeca-1(8),2(6),9, 11-tetraen-3-yl]acetamide]	–	–	–	–	–	–	–	–	–	–	–	–	–
< 5000	≤ 500	≤ 500	≥ 1000	≥ 1000	≥ 1000	CN(C)[C@H]1CC[C@H](Oc2ncnc3sc4c(c23)C[C@@H](C(N)=O)CC4)CC1 [Compound I-233, (12S)-3-[[4-(dimethylamino)cyclohexyl]oxy]-8-thia-4,6-diazatricyclo[7.4.0.0[2,7]]trideca-1(9),2(7),3,5-tetraene-12-carboxamide]	–	–	–	–	–	–	–	–	–	–	–	–	–
< 5000	500 to 1000	1000 to 5000	≥ 1000	–	–	CN[C@H]1CC[C@H](Oc2ncnc3sc4c(c23)[C@@H](CC(N)=O)CC4)CC1 [Compound I-79, 2-[(3R)-12-[[4-(methylamino)cyclohexyl]oxy]-7-thia-9,11-diazatricyclo[6.4.0.0̂[2,6]]dodeca-1(8),2(6),9,11-tetraen-3-yl]acetamide]	–	–	≥ 1000	–	–	–	≥ 1000	≥ 1000	–	–	–	–	–

— patent publication US20160193216A1 (Nimbus Iris, Inc., priority 2012, published 2016)
